Reference: patent US20230181580A1, “TREATMENT OF PROLIFERATIVE DISEASES OF THE CNS” (AUCENTRA THERAPEUTICS PTY LTD, priority 2020, published 2023)

Key:
PANC1 = experiment: MTT proliferation assay, pancreas; type: cell-based; conditions: Homo sapiens, PANC-1, 72 h, read-out: Antiproliferative activity GI50 PANC1
Text: (§1) Representative compounds from Example 1, were subjected to standard MTT (3-(4,5-dimethylthiazol-2-yl)-2,5-diphenyltetrazolium bromide) and resazurin assays on solid tumour cell lines (including GBM cell lines) and leukemia cell lines, respectively, as previously reported (Wang S et al., J Med Chem 47:1662-1675, 2004; and Diab S. et al. CheMedChem 9:962-972, 2014).

LNCap = experiment: MTT proliferation assay, prostate; type: cell-based; conditions: Homo sapiens, 72 h, read-out: Antiproliferative activity GI50 LNCap
Text: as §1

MB453 = experiment: MTT proliferation assay, breast; type: cell-based; conditions: 72 h, read-out: Antiproliferative activity GI50 MB453
Text: as §1

[1] = test system: GBM patient-derived G4T cells; experiment: Orthotopic GBM patient-derived G4T xenograft; type: in vivo, NSG mice; conditions: single agent or with TMZ; p<0.001
Protocol: In a separate study, NSG mice (n=8) orthotopically engrafted with GBM patient-derived G4T cells were administered with vehicle, compound 1, TMZ, and co-treatment of compound 1 and TMZ, respectively, as shown in FIG. 6B. The disease burden of each of the treatment groups was measured by bioluminescent whole-body imaging.

U87 = experiment: MTT proliferation assay, glioblastoma; type: cell-based; conditions: Homo sapiens, U-87 MG, 72 h, read-out: Antiproliferative activity GI50 U87
Protocol: (§2) All three GBM cell lines used in this example, namely U87, U251 and T98G, were cultured in Eagle's Minimum Essential Medium (EMEM) with 10% fetal bovine serum in 75 cm^2 flasks at 37° C. and 5% CO2. All cell lines were confirmed to be mycoplasma-free prior to any experiment setup.
as §1

T98G = experiment: MTT proliferation assay, glioblastoma; type: cell-based; conditions: Homo sapiens, 72 h, read-out: Antiproliferative activity GI50 T98G
Protocol: as §2, §1

U251 = experiment: MTT proliferation assay, glioblastoma; type: cell-based; conditions: Homo sapiens, U-251, 72 h, read-out: Antiproliferative activity GI50 U251
Protocol: as §2, §1

Colo205 = experiment: MTT proliferation assay, colorectal; type: cell-based; conditions: Homo sapiens, COLO 205, 72 h, read-out: Antiproliferative activity GI50 Colo205
Text: as §1

U87 GBM cells = experiment: Subcutaneous U87 GBM xenograft, single agents; type: in vivo
Text: Compound 1 and compound 2 were also investigated for in vivo antitumour activity in subcutaneous xenograft models. Briefly, U87 GBM cells were harvested and resuspended in a 1:1 mixture of serum-free media and matrigel, and 5×10^6 cells injected subcutaneously into the rear flank of 5-6-week-old CD1 nu/nu female mice. When the mean tumour volume reached 150-200 mm^3, animals were randomised to treatment groups (n=10 per group) and treated orally with vehicle (0.5% carboxymethyl cellulose in water), compound 1 or compound 2 daily for 21 days with the doses shown in FIGS. 5A and 5B. Mice were observed daily for signs of toxicity and weight loss, and tumour volume measured every other day.

CDK9/T1 = CDK9/T1 (Homo sapiens, UniProt P50750); experiment: CDK kinase inhibition assay (radiometric / ADP Glo); type: biochemical
CDK9/T1, sequence (P50750 whole entry): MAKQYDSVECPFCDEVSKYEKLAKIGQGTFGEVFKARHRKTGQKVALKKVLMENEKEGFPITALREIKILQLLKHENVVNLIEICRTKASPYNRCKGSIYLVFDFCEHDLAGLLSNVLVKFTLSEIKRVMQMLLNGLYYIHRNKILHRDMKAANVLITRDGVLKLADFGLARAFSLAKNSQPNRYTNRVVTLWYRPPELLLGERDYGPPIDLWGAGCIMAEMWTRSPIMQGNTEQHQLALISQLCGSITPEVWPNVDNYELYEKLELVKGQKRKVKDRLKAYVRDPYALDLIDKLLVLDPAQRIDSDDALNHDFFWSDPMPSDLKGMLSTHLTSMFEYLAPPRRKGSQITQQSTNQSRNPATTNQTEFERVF
CDK9/T1, sequence (O60563 whole entry partner): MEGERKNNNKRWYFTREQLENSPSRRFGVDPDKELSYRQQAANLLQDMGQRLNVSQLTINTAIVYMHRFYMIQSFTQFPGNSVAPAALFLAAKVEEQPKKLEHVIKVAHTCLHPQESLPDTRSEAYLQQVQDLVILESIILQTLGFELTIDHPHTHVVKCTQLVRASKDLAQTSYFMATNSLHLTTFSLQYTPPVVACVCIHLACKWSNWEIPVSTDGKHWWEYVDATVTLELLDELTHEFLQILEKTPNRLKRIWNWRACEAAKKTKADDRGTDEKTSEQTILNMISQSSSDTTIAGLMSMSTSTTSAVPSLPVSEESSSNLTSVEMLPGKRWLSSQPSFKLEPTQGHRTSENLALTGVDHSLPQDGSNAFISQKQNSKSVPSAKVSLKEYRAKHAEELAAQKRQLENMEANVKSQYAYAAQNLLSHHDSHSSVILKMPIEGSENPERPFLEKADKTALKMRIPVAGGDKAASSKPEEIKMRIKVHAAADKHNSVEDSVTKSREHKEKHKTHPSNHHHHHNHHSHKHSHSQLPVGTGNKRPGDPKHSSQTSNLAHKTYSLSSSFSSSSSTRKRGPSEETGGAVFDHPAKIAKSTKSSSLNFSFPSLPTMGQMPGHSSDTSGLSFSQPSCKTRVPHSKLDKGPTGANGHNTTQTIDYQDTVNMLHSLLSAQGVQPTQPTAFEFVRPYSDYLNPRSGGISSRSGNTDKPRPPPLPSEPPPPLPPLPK
Protocol: (§3) Eurofins Pharma Discovery or Reaction Biology Corporation Kinase Profiler services were used to measure inhibition of CDKs and other kinases by radiometric assay (RIA). Inhibition of CDK4/Cyclin D1, CDK6/Cyclin D3 and CDK9/T1 were also determined in-house using ADP Glo Kinase assays (Promega Corporation, Madison Wis., United States of America). Briefly, the kinase reaction for CDK4/Cyclin D1 and CDK6/Cyclin D3 was performed with kinase reaction buffer ([…] Tris base pH 7.5, 20 mM MgCl2, 0.4 mM DTT), 0.1 mg/ml BSA and RB-CTF substrate (retinoblastoma protein1 C-terminal fraction). For CDK9/CyclinT1, the kinase reaction was performed with standard assay buffer and Kinase Dilution Buffer and RBER-IRStide substrate. Serial dilutions of 1:3 were prepared for test compounds for 10 concentrations (from 10 μM to 0.5 nM). The kinase reactions were started by addition of ATP, incubated for 40 min at 37° C. and then stopped by adding 10 μL of ADP Glo reagent. After incubation at room temperature (RT) in the dark for 40 min, 20 μL of kinase detection reagent was added per well and incubated for 40 min. Luminescence was measured using an EnVision Multilabel plate reader (PerkinElmer, Buckinghamshire, United Kingdom). Positive and negative controls were performed in the presence and absence of CDK kinases, respectively. Half-maximal inhibition (IC50) values were calculated using a 4-parameter logistic non-linear regression model with Graphpad prism (Version 6.0). Apparent inhibition constants (Ki) values were calculated from Km (ATP) and IC50 values for the respective kinases.

CDK1/B = CDK1/B (Homo sapiens, UniProt P06493); experiment: as above; type: biochemical
CDK1/B, sequence (P06493 whole entry): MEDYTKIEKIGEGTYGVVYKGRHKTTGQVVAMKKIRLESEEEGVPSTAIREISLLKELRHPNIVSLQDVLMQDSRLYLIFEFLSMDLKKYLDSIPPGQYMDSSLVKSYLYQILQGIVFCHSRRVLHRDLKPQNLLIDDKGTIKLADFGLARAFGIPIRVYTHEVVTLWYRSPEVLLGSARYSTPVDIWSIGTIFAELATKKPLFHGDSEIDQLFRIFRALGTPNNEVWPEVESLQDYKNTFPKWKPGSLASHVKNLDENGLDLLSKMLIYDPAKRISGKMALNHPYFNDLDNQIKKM
CDK1/B, sequence (P14635 whole entry partner): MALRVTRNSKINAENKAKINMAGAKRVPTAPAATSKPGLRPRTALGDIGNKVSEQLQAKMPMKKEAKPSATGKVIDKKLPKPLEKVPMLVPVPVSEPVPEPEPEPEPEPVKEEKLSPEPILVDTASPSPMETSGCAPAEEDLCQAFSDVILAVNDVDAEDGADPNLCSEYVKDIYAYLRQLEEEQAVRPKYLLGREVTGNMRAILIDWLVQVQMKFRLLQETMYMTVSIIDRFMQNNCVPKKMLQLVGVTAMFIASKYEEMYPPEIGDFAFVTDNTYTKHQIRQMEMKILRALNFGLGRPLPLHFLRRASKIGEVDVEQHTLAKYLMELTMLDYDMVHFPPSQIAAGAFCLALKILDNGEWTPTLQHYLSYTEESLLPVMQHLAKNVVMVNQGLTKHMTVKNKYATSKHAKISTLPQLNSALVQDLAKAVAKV
Protocol: as §3

CDK2/A = CDK2/A (Homo sapiens, UniProt P24941); experiment: as above; type: biochemical
Protocol: as §3

CDK7/H = CDK7/H (Homo sapiens, UniProt P50613); experiment: as above; type: biochemical
CDK7/H, sequence (P50613 whole entry): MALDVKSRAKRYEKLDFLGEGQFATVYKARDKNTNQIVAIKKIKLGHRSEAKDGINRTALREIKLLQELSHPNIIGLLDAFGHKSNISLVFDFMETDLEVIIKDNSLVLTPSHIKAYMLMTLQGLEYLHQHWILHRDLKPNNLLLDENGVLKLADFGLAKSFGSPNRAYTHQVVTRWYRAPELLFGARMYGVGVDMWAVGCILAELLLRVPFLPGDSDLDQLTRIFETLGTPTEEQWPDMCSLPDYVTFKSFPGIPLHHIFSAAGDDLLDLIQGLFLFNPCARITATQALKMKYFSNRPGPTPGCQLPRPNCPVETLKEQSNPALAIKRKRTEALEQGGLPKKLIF
CDK7/H, sequence (P51946 whole entry partner): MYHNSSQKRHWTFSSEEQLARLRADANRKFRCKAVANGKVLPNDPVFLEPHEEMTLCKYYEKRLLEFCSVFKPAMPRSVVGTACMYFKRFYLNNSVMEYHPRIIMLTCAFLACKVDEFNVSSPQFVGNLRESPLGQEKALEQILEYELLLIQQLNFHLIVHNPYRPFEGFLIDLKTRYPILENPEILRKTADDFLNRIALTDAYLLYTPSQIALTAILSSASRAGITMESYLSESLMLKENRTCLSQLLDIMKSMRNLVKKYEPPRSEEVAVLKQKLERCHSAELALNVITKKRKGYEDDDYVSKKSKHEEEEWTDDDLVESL
CDK7/H, sequence (P51948 whole entry partner): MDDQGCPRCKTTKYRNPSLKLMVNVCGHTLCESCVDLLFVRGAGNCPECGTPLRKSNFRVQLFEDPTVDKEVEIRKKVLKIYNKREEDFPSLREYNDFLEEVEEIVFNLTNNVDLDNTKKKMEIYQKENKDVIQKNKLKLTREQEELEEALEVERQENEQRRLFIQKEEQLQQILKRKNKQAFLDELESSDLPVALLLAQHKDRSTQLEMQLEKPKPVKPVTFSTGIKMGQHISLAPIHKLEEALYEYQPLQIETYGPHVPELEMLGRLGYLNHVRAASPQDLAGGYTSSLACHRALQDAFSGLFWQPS
Protocol: as §3

[2] = test system: GBM cell lines (U87, U251, T98G); experiment: In vitro tumorigenicity (colony formation) assay; type: cell-based; conditions: 10 days, crystal violet staining, FIG. 3B
Protocol: as §2
A density of 200 to 400 cells/well was seeded in a twelve-well plate and incubated for overnight prior to compound treatment. […] After 10 days, cells were washed with PBS, fixed and stained with crystal violet staining solution (0.05% crystal violet, 1% formaldehyde, 1% PBS, 1% ethanol); the results are shown in FIG. 3B.

MV4-11 = experiment: Resazurin proliferation assay, leukaemia cell line; type: cell-based; conditions: Homo sapiens, 72 h, read-out: Antiproliferative activity GI50 MV4-11
Text: as §1

GBM U87 cells = experiment: Annexin V/PI apoptosis assay; type: cell-based; conditions: 5 μM, 48 hours, with or without 5 μM TMZ
Protocol: The ability of compound 1 to induce apoptosis in GBM cells was investigated using the annexin V-FITC apoptosis detection kit I (BD Pharmingen Inc.; San Diego, Calif., United States of America) according to the manufacturer's protocol. Cell pellets were washed twice with 1 mL cold PBS and centrifuged at 300×g for 5 mins. Following the removal of supernatants, cell pellets were stained with 100 μL 1× annexin V binding buffer, 3 μL annexin V-FITC and 3 μL propidium iodide staining solution, and incubated in the dark at room temperature for 15 mins. The percentage of apoptic cells was measured by a CytoFLEX flow cytometer.

CNc1nc(C)c(-c2nc(Nc3ccc(N4CCC(N(C)C)CC4)cn3)ncc2F)s1 [Compound 1, 5-(2-((5-(4-(dimethylamino)piperidin-1-yl)pyridin-2-yl)amino)-5-fluoropyrimidin-4-yl)-N,4-dimethylthiazol-2-amine]
GI50 (PANC1): 1320 nM | GI50 (LNCap): 620 nM | GI50 (MB453): 330 nM | inhibition of tumour growth (bioluminescent imaging) [1]: significant inhibition of tumour growth either as a single agent or in combination with TMZ | GI50 (U87): 4460 nM | GI50 (T98G): 2960 nM | GI50 (U251): 5520 nM | GI50 (Colo205): 2320 nM | T/C (U87 GBM cells; day 21, oral daily for 21 days, vs vehicle, p<0.001): 310% | tumour growth compared to vehicle treatment (U87 GBM cells; oral daily for 21 days): markedly reduced tumour growth | toxicity (U87 GBM cells; oral daily for 21 days, observed daily for signs of toxicity and weight loss): without any overt toxicity | Ki (CDK9/T1): > 1000 nM | Ki (CDK1/B): > 1000 nM | Ki (CDK2/A): > 1000 nM | Ki (CDK7/H): > 1000 nM | growth and proliferation (colony formation) [2]: inhibits the growth and proliferation of all three GBM cell lines | GI50 (MV4-11): 110 nM | induction of apoptosis (annexin V/PI) (GBM U87 cells): capable of inducing apoptosis in GBM cells to a greater level than the control anti-cancer agent, palbociclib
